The text below walks through data of article PMC6407204, “Oral administration of the cannabigerol derivative VCE-003.2 promotes subventricular zone neurogenesis and protects against mutant huntingtin-induced neurodegeneration” (Translational Neurodegeneration, 2019).

Test [1] deals with CTIP2 transcriptional activity. The test can be described thus: CTIP2 luciferase transcriptional reporter assay (A4-MARS) in P19 cells. It counts as cell-based, mouse. As to conditions: 24 h after transfection, neuronal differentiation conditions, vs vehicle. Here is the method:
All reagents, unless indicated, were from Sigma-Aldrich (St. Louis, MO, USA). The synthesis and structure of VCE-003.2 were previously described. Mouse embryonic teratocarcinoma P19 were cultured in high-glucose DMEM (Invitrogen) supplemented with 10% fetal bovine serum and 1% penicillin/streptomycin. P19 cells were plated in 24-well plates and transfected with Lipofectamine 2000 reagent according to the manufacture’s protocol (Invitrogen). Twenty-four hours post transfection, cells were collected for RNA extraction or luciferase assay determinations. P19 neurosphere formation assay was performed using dissociated P19 cells cultured in high-glucose DMEM (Invitrogen) supplemented with 5% of fetal bovine serum and 0. 5 μM retinoic acid. Twenty-four hours later the mean neurosphere size was quantified. Luciferase construct with the MAR sequence A4 of the Ctip2 promoter was kindly provided (R. Grosschedl, Max-Planck-Institute of Immunobiology and Epigenetics, Freiburg, Germany).
To study CTIP2 transcriptional activity P19 cells were seeded in 24-well plates and transiently co-transfected with the luciferase reporter vector MARS-A4-luc using Roti-Fect (Carl Roth, Karlsruhe, Germany) following the manufacturer’s instructions. […] After stimulation, the luciferase activities were quantified using Dual-Luciferase Assay (Promega, Madison, WI, USA). […]
Background: In a reporter assay the amount or activity of a reporter protein is the signal.

In another test the test system is P19 cells. The test can be described thus: P19 neurosphere formation assay. It is filed as cell-based, mouse. As to conditions: P19 cells cultured 24 h. Here is the method: All reagents, unless indicated, were from Sigma-Aldrich (St. Louis, MO, USA). The synthesis and structure of VCE-003.2 were previously described. Mouse embryonic teratocarcinoma P19 were cultured in high-glucose DMEM (Invitrogen) supplemented with 10% fetal bovine serum and 1% penicillin/streptomycin. P19 cells were plated in 24-well plates and transfected with Lipofectamine 2000 reagent according to the manufacture’s protocol (Invitrogen). Twenty-four hours post transfection, cells were collected for RNA extraction or luciferase assay determinations. […] Twenty-four hours later the mean neurosphere size was quantified. […]
Fig. 2 VCE-003.2 exerts a pro-neurogenic effect in vitro. a-b Mouse embryonic stem cells (R1 line) were treated with Vehicle, VCE-003.2 (500 nM) during neural differentiation for 21 days. Representative immunofluorescence images and quantification of CTIP2- and doublecortin-positive cells is shown (n = 3). c Luciferase reporter assay of the A4-MARS sequence of the CTIP2 locus was performed 24 h after P19 cell transfection under neuronal differentiation conditions and subject to pharmacological regulation as above. d P19 neurosphere formation assay was performed by culturing the cells for 24 h in the presence of Vehicle or VCE-003.2. […]

Test [2] concerns mutant huntingtin-induced neurodegeneration. Description: Viral model of Huntington's disease, AAV expression of mutant huntingtin (AAV-htt94Q) in mouse striatum. It is filed as in vivo, C57BL/6 N mice. As to conditions: 10 mg/kg/day oral. Here is the method:
Male C57BL/6 N mice (10 weeks old) were housed under standard conditions (12-h light/dark cycle) in groups with access to food and water ad libitum. All experiments were performed in accordance with European Union guidelines and approved by the Animal Research Ethics Committee of Complutense and Córdoba University. Procedures were designed to minimize the number of animals used and their suffering. Constructs expressing CFP-tagged human huntingtin exon 1 harboring a pathogenic polyQ tract of 94 CAG repeats or a normal, non-pathogenic polyQ tract of 16 CAG repeats (kindly provided by Dr. José J. Lucas, Severo Ochoa Molecular Biology Center, Madrid, Spain) were employed using an AAV1/AAV2 mixed serotype, generated by polyethyleneimine transfection of HEK293T cells and subsequent purification in iodixanol gradient. Vectors were injected stereotactically (in 3 μl PBS) into the dorsal striatum in a bilateral manner at coordinates (mm to bregma): antero-posterior + 0.5, lateral ±2.5, dorso-ventral − 3.5 as previously described. VCE-003.2 (10 mg/kg) or vehicle (sesame oil) were orally administered once daily (Fig. 1), and for neurogenesis experiments BrdU (100 mg/kg) was administered i.p. twice daily on the first week after viral injection. RotaRod test was conducted prior to drug injections to avoid acute effects of the compounds under investigation. RotaRod started at 4 rpm, with an acceleration rate of 6 rpm/min until either maximum speed is reached or the mouse falls from the apparatus. Maximum time assay was 10 min. Basal RotaRod performance was determined 6 days prior to striatal injury in 3 consecutive days with 3 trials/day (30 min of rest between each trial), and groups with equivalent motor function were assigned. RotaRod test was performed during 3 consecutive days prior to sacrifice and plasma was obtained for peripheral biomarker analyses. All experiments included a minimum of 6 mice per condition. The precise number of animals analyzed in each experiment is indicated in the corresponding figure legends.
Free floating coronal brain slices (30 μm) were processed as previously described. In brief, after blocking with 10% goat serum, brain sections were incubated with the indicated primary antibodies followed by secondary antibody incubation (2 h at room temperature). The appropriate mouse, rat and rabbit highly cross-adsorbed AlexaFluor 488, AlexaFluor 594 and AlexaFluor 647 secondary antibodies (1:500; Molecular Probes, Leyden, The Netherlands) were used. Samples were subsequently incubated with DAPI (1:5000, Roche) for 10 min, washed with PBS and mounted in Mowiol. All immunofluorescence data were obtained in a blinded manner by independent observers in a minimum of 6 correlative slices, from 1-in-10 series located between − 0.4 to + 1.6 mm to bregma. The lateral SVZ zone was delineated by using DAPI-counterstained cell nuclei, and analyses were performed in the upper dorsal tier, in which positively-labelled cells and immunoreactivity were quantified not beyond 100 μm of the SVZ. Confocal fluorescence images were acquired by using LAS-X software (Wetzlar, Germany) and SP8 microscope with 2 passes by Kalman filter, a 1024X1024 collection box, and pinhole AU 1. […] Cells were quantified within a 20 × 20 μm counting frame, which randomly sampled within a 122.8 × 68.9 μm counting grid. Cells that contacted the lateral or upper exclusion plane were excluded. The total number of cells counted was divided by the number of sampled counting frames and multiplied by its size to obtain the density of positive cells. Co-localization was confirmed by orthogonal projection of 18 z-stack files (1-μm each), and data were expressed as cells/mm^2. […]

The target of another test is hERG channel (Homo sapiens, UniProt Q12809). Description: hERG channel inhibition, IonWorks HT electrophysiology in CHO-hERG cells. Background: The hERG channel carries a current that helps repolarise heart muscle cells.
Sequence of hERG channel (Q12809 whole entry): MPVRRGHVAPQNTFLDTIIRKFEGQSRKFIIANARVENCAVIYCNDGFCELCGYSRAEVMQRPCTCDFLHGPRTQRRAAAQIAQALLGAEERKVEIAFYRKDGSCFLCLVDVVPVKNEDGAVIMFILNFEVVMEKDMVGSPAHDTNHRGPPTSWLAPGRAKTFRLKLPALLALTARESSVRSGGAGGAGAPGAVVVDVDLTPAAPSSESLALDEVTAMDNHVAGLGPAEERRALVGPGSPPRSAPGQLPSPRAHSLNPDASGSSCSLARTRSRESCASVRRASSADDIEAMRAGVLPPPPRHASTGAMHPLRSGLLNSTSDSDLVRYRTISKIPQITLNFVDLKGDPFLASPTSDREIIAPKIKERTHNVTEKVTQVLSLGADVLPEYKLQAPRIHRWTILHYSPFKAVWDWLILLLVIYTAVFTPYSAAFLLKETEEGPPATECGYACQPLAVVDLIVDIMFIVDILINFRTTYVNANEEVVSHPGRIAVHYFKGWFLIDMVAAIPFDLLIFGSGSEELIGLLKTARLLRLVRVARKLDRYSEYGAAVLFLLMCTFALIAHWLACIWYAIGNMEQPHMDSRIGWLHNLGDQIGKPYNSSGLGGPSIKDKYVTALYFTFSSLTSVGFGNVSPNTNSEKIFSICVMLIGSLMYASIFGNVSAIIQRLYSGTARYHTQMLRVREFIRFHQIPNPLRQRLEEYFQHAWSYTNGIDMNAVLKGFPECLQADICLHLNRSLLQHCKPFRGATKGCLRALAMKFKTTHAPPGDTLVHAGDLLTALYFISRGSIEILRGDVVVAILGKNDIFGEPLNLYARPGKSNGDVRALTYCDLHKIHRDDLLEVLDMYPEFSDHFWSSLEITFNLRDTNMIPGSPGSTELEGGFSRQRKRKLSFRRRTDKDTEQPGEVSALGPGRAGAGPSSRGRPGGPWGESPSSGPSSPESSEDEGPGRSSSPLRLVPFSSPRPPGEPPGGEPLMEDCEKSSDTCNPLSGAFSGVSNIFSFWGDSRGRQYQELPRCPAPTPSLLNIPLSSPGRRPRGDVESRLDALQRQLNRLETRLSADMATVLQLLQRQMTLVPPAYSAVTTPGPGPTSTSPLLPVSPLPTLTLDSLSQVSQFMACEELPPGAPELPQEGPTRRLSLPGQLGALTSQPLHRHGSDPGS
The mark [3] stands for this setting: AAV-htt16Q and AAV-htt94Q mice, 30 days.
[4] abbreviates: AAV-htt94Q mice, 4 weeks after lesion.

Each structure is given as a SMILES string.

Regarding `CCCCCC1=C(NCC)C(=O)C(CC=C(C)CCC=C(C)C)=C(O)C1=O` [VCE-003.2, 2-(3,7-dimethyl-octa-2,6-dienyl)-6-ethylamino-3-hydroxy-5-pentyl-(1,4) benzoquinone], in test [1], the “CTIP2 reporter (A4-MARS luciferase) activity” value is recorded as “CTIP2 reporter activation”. In the test on P19 cells, this compound registered a mean neurosphere size of 367.90 ± 15.20 μm. Further, in test [2] (setting [3]), the “doublecortin-positive neuroblasts in striatum” value was “increased doublecortin-expressing cells” and the “effective neurogenesis, double-positive NeuN/BrdU neurons” value is recorded as “effective in promoting neurogenesis”. Also, in test [2] (setting [4]), the “Ascl1-positive transit amplifying progenitors” value is on record as “further promoted Ascl1-positive cell expansion” and the “proliferating SVZ neural stem cells, GFAP/Ki-67 double-labelled” value was “increased the number of proliferating GFAP-positive cells”. Besides, in test [2] (AAV-htt94Q mice, 14 days, vs vehicle), the “motor performance, RotaRod latency to fall” value is recorded as “performed better in the RotaRod test”. Moreover, the “MSN degeneration, DARPP-32 and NeuN immunofluorescence” value in test [2] (AAV-htt94Q mice, 30 days after lesion) was “prevented htt94Q-induced MSN degeneration”. For the same compound, in test [2] (AAV-htt94Q mice, vs vehicle), the “microglial activation, Iba1 immunoreactivity” value is listed as “reduced microglial activation”. Also, the IC50 – broadly, the point on the concentration scale where inhibition reaches its midpoint – against hERG channel was greater than 25 µM.
